Data from patent US10301314B2, “Compounds and methods for the prevention and treatment of tumor metastasis and tumorigenesis” (The United States of America, as represented by the …, priority 2011, dated 2019).

Tests used:
[1] = test system: PC3M cell line that stably expresses GFP-PTB to mark PNCs; experiment: High content assay for PNC detection (reduction of PNC prevalence); assay type: cell-based, human; details: Table 4, PC3M GFP-PTB cells, 16 hrs incubation; for IC50: Homo sapiens, PC-3M
Source text: The quantitative output for this assay is the reduction of PNC prevalence. The PNC can be detected in living cells by the expression of a green fluorescent protein (GFP) tagged to the PNC localized protein, PTB. A PC3M cell line was used that stably expresses GFP-PTB to mark PNCs. This method eliminates the need for immunofluorescent staining.
The IN Cell Analyzer 1000 automated fluorescent imaging system (GE Healthcare, Piscataway, N.J.) was used for automated image acquisition. […] The instrument acquired images of each well in a 1536-well plate with a laser-based autofocus system. To score PNC prevalence in a high-content throughput, the Multi-Target Analysis (MTA) algorithm (GE Healthcare, Investigator v3.5) to identify individual cells and granules (PNCs) within these cells was used. The nucleus was segmented via a region growing method (50 μm^2 minimum area) with light shading and noise removal to allow “touching” nuclei to be separated. Granules in the nucleus (PNCs) were segmented using a multiscale top hat method, which measures granules of 1 to 2 μm in size and used a smart masking method to identify the boundaries of each segmented granule. The algorithm was optimized and validated using positive and negative controls (50 μM camptothecin and DMSO, respectively). In particular, the MTA algorithm allows for the identification of multiple subcellular compartments and organelles (or granules) within those compartments. In this instance, the algorithm's capability to identify objects within the same color channel that only differ in size or fluorescent intensity was utilized. Also, the algorithm allows for building complex hierarchical classification systems, using output measures within the algorithm to filter and define subpopulations. For this particular assay, PNC-positive cells were scored when 1 to 3 PNC granules were detected per nucleus. Cells that contained 0 granules were scored as PNC negative, and cells with >3 granules were assumed to be false positives (very few cells have more than 3 PNCs in one focus plane), and were also scored as PNC negative.

[2] = test system: PC3M reporter cell line stably expressing the PTB-GFP; experiment: ATP quantitation assay (ATPLite); assay type: cell-based, human; details: Table 4, PC3M cells, 24 hrs incubation; for IC50: Homo sapiens, PC-3M
Description: This follow-up assay was conducted to measure the effect of compounds on cell health by measuring ATP levels (ATPLite™). ATPLite™ is an ATP monitoring system based on firefly (Photinus pyralis) luciferase. The level of ATP in a metabolically active cell is a general marker for its viability. ATP levels are often reduced during necrosis or apoptosis. In this assay, the luciferase enzyme catalyzes the conversion of the added substrate D-luciferin to oxyluciferin and light with ATP. Thus, the emitted light is proportional to the ATP concentration. For this assay, the highly metastatic PC3M reporter cell line stably expressing the PTB-GFP was provided by Professor Sui Huang of Northwestern University. The media and cell culture reagents were purchased from Invitrogen (Carlsbad, Calif.), ATPLite™ came from PerkinElmer.

Row | SMILES | IC50 [1] [nM] | IC50 [2] [µM] | PNC IC50(μM) [1] | ATP IC50(μM) [2]
1 | N=c1c2c(-c3ccccc3)c(-c3ccccc3)n(Cc3ccc(OC(F)(F)F)cc3)c2ncn1[C@H]1CC[C@@H](O)CC1 [Compound 84] | 2960 | 24.1 | – | –
2 | N=c1c2c(-c3ccccc3)c(-c3ccccc3)n(Cc3ccccc3)c2ncn1Cc1ccc2c(c1)OCO2 [Compound 45] | 9350 | 24.1 | – | –
3 | COCCn1cnc2c(c(-c3ccccc3)c(-c3ccccc3)n2Cc2ccccc2)c1=N [Compound 25] | 1870 | 60.7 | – | –
4 | CO[C@H]1CC[C@H](n2cnc3c(c(-c4ccccc4)c(-c4ccccc4)n3CCc3ccccc3)c2=N)CC1 [Compound 65] | 235 | 19.2 | – | –
5 | CN(C)CCn1cnc2c(c(-c3ccccc3)c(-c3ccccc3)n2CCc2ccccc2)c1=N [Compound 20] | 469 | 96.1 | – | –
6 | C[C@H]([C@@H](O)c1ccccc1)n1cnc2c(c(-c3ccccc3)c(-c3ccccc3)n2Cc2ccccc2)c1=N [Compound 83] | 2960 | 24.1 | – | –
7 | N=c1c2c(-c3ccccc3)c(-c3ccccc3)n(Cc3ccco3)c2ncn1CCCN1CCOCC1 [Compound 107] | 25000 | 32.4 | – | –
8 | N=c1c2c(-c3ccccc3)c(-c3ccccc3)n(Cc3ccccc3)c2ncn1C1CCN(Cc2ccccc2)CC1 [Compound 23] | 4690 | 121 | – | –
9 | N=c1c2c(-c3ccccc3)cn(Cc3ccccc3)c2ncn1C1CCOCC1 [Compound 122] | – | – | inactive | inactive
10 | COc1ccc(Cn2c(-c3ccccc3)c(-c3ccccc3)c3c(=N)n(CC4CCCO4)cnc32)cc1 (stereo not shown) [Compound 40] | 5900 | 38.3 | – | –
11 | N=c1c2c(-c3ccccc3)c(-c3ccccc3)n(CCc3ccccc3)c2ncn1CC1CCCO1 (stereo not shown) [Compound 39] | 4690 | 48.2 | – | –
12 | COC(Cn1cnc2c(c(-c3ccccc3)c(-c3ccccc3)n2CCc2ccccc2)c1=N)OC [Compound 29] | 23500 | 27.1 | – | –
13 | COc1ccc(-c2c(-c3ccc(OC)cc3)n(Cc3ccccc3)c3ncn(C4CCCC[C@H]4CO)c(=N)c23)cc1 (stereo partly shown) [Compound 113] | – | 30.4 | inactive | –
14 | COc1ccc(Cn2c(-c3ccccc3)c(-c3ccccc3)c3c(=N)n(CCCCCO)cnc32)cc1 [Compound 14] | 1180 | 24.1 | – | –
15 | N=c1c2c(-c3ccccc3)c(-c3ccccc3)n(CC3CCCCC3)c2ncn1[C@H]1CC[C@@H](O)CC1 [Compound 86] | 3720 | 24.1 | – | –
16 | CO[C@H]1CC[C@H](n2cnc3c(c(-c4ccccc4)c(-c4ccccc4)n3Cc3ccc(OC(F)(F)F)cc3)c2=N)CC1 [Compound 69] | 372 | 19.2 | – | –
17 | N=c1c2c(-c3ccccc3)c(-c3ccccc3)n(Cc3ccc(S(N)(=O)=O)cc3)c2ncn1CC1CCOCC1 [Compound 79] | 1870 | 383 | – | –
18 | CCOC(CCCn1cnc2c(c(-c3ccccc3)c(-c3ccccc3)n2Cc2ccccc2)c1=N)OCC [Compound 31] | 2960 | 24.1 | – | –
19 | N=c1c2c(-c3ccccc3)c(-c3ccccc3)n(Cc3ccccc3)c2ncn1CCN [Compound 18] | – | 76.4 | inactive | –
20 | N=c1c2c(-c3ccccc3)c(-c3ccccc3)n(CCc3ccccc3)c2ncn1CCCCO [Compound 13] | 235 | 15.2 | – | –
21 | N=c1c2c(-c3ccccc3)c(-c3ccccc3)n(Cc3ccccc3)c2ncn1CCO [Compound 4] | 118 | 76.4 | – | –
22 | N=c1c2c(-c3ccccc3)c(-c3ccccc3)n(CCc3ccccc3)c2ncn1C1CCOCC1 [Compound 71] | 372 | 121 | – | –
23 | CN(C)CCCn1cnc2c(c(-c3ccccc3)c(-c3ccccc3)n2CCc2ccccc2)c1=N [Compound 22] | 7430 | 24.1 | – | –
24 | N=c1c2c(-c3ccccc3)cn(Cc3ccccc3)c2ncn1[C@H]1CC[C@H](O)CC1 [Compound 139] | – | – | inactive | inactive
25 | N=c1c2c(-c3ccccc3)c(-c3ccccc3)n(CCc3ccccc3)c2ncn1CC1CCOC1 (stereo not shown) [Compound 87] | 4690 | 60.7 | – | –

Row | SMILES | IC50 [1] [nM] | IC50 [2] [µM] | PNC IC50(μM) [1] | ATP IC50(μM) [2]
26 | CN(C)CCn1cnc2c(c(-c3ccccc3)c(-c3ccccc3)n2Cc2ccccc2)c1=N [Compound 19] | 935 | 24.1 | – | –
27 | COc1ccc(-c2c(-c3ccc(OC)cc3)n(Cc3ccccc3)c3ncn(CC4CCOCC4)c(=N)c23)cc1 [Compound 123] | – | 24.1 | inactive | –
28 | N=c1c2c(-c3ccccc3)c(-c3ccccc3)n(Cc3ccccc3)c2ncn1CCCn1ccnc1 [Compound 36] | 1990 | 25.7 | – | –
29 | COc1ccc(Cn2c(-c3ccccc3)c(-c3ccccc3)c3c(=N)n(CC(OC)OC)cnc32)cc1 [Compound 30] | 5900 | 24.1 | – | –
30 | N=c1c2c(-c3ccccc3)cn(Cc3ccccc3)c2ncn1C1CCN(Cc2ccccc2)CC1 [Compound 82] | 2350 | 30.4 | – | –
31 | N=c1c2c(-c3ccccc3)c(-c3ccccc3)n(Cc3ccc(OC(F)(F)F)cc3)c2ncn1CCCO [Compound 74] | 743 | 24.1 | – | –
32 | N=c1c2c(-c3ccccc3)cn(Cc3ccccc3)c2ncn1CCN [Compound 136] | – | – | inactive | inactive
33 | COc1ccc(Cn2c(-c3ccccc3)c(-c3ccccc3)c3c(=N)n([C@H]4CC[C@H](O)CC4)cnc32)cc1 [Compound 58] | 118 | 24.1 | – | –
34 | N=c1c2c(-c3ccccc3)c(-c3ccccc3)n(CC3CCCCC3)c2ncn1CC1CCOCC1 [Compound 95] | 11800 | 24.1 | – | –
35 | C#CCn1cnc2c(c(-c3ccccc3)cn2Cc2ccccc2)c1=N [Compound 124] | – | – | inactive | inactive
36 | N=c1c2c(-c3ccccc3)cn(Cc3ccccc3)c2ncn1CCCN1CCN(c2ccccc2)CC1 [Compound 125] | – | 30.4 | inactive | –
37 | COCCn1cnc2c(c(-c3ccccc3)cn2Cc2ccccc2)c1=N [Compound 115] | – | 121 | inactive | –
38 | COc1ccc(-c2c(-c3ccc(OC)cc3)n(Cc3ccccc3)c3ncn(CCO)c(=N)c23)cc1 [Compound 103] | 18700 | 24.1 | – | –
39 | N=c1c2c(-c3ccccc3)c(-c3ccccc3)n(CC3CCCCC3)c2ncn1C1CCCC[C@H]1O (stereo partly shown) [Compound 80] | 1870 | 21.5 | – | –
40 | N=c1c2c(-c3ccccc3)c(-c3ccccc3)n(Cc3ccccc3)c2ncn1CCCCCO [Compound 15] | 372 | 24.1 | – | –
41 | CCCCn1cnc2c(c(-c3ccccc3)c(-c3ccccc3)n2Cc2ccco2)c1=N [Compound 34] | 1250 | 20.4 | – | –
42 | N=c1c2c(-c3ccccc3)c(-c3ccccc3)n(Cc3ccc(OC(F)(F)F)cc3)c2ncn1CC1CCOCC1 [Compound 91] | 5900 | 30.4 | – | –
43 | N=c1c2c(-c3ccc4c(c3)OCO4)c(-c3ccc4c(c3)OCO4)n(Cc3ccccc3)c2ncn1C1CCOCC1 [Compound 89] | 5900 | 24.1 | – | –
44 | N=c1c2c(-c3ccccc3)cn(Cc3ccccc3)c2ncn1CCO [Compound 140] | – | – | inactive | inactive
45 | N=c1c2c(-c3ccccc3)c(-c3ccccc3)n(CC3CCCCC3)c2ncn1CCCO [Compound 106] | 23500 | 30.4 | – | –
46 | N=c1c2c(-c3ccccc3)c(-c3ccccc3)n(CC3CCCCC3)c2ncn1C[C@H]1CCCC[C@@H]1O [Compound 101] | 14800 | 24.1 | – | –
47 | N=c1c2c(-c3ccccc3)cn(Cc3ccccc3)c2ncn1CCCCCO [Compound 109] | 46900 | 96.1 | – | –
48 | N=c1c2c(-c3ccccc3)cn(Cc3ccccc3)c2ncn1[C@H](CO)Cc1ccccc1 [Compound 111] | 93500 | 121 | – | –
49 | COc1ccc(Cn2c(-c3ccccc3)c(-c3ccccc3)c3c(=N)n(CC4CCOCC4)cnc32)cc1 [Compound 76] | 935 | 48.2 | – | –
50 | N=c1c2c(-c3ccccc3)cn(Cc3ccccc3)c2ncn1C(CO)(CO)CO [Compound 99] | 14800 | – | – | inactive
